Measurements taken from ChEMBL document CHEMBL4196245, “Structures and Antimutagenic Effects of Onoceranoid-Type Triterpenoids from the Leaves of Lansium domesticum” (2018).
The source made the active and inactive calls. The rule behind the calls is not given here.

Columns and labels:
Salmonella typhimurium [1] = test: Antimutagenic activity against Salmonella typhimurium TA98 assessed as inhibition of Trp-P-1-induced mutation at 80 nmol/plate measured in presence of S9 fraction by Ames test relative to control; type: functional, Salmonella enterica subsp. enterica serovar Typhimurium
Salmonella typhimurium [2] = test: Antimutagenic activity against Salmonella typhimurium TA98 assessed as inhibition of Trp-P-1-induced mutation at 100 nmol/plate measured in presence of S9 fraction by Ames test relative to control; type: functional, Salmonella enterica subsp. enterica serovar Typhimurium
Mus musculus = organism: Mus musculus; test: Antimutagenic activity against PhIP-induced mutation in ICR mouse assessed as reduction in micronucleated reticulocytes at 0.03 to 0.06% w/w treated prior to PhIP addition measured 24 to 48 hrs post dose by fluorescence microscopic analysis; type: functional, organism-based

Compound | inhibition (INH) (Salmonella typhimurium [2]) [%] | also measured
COc1ccc(-c2cc(=O)c3c(OC)c(OC)c(OC)c(OC)c3o2)cc1OC [NOBILETIN] | – | inhibition (INH) (Salmonella typhimurium [1]): 56%
C=C(C)[C@@H]1CC=C(C)[C@H](CC[C@H]2C(=C)CC[C@H]3C(C)(C)[C@@H](O)CC[C@]23C)[C@@]1(C)CCC(=O)OCC [ETHYL LANSIOLATE] | 7.9 | –
C=C(C)[C@@H]1CC=C(C)[C@H](CC[C@H]2C(=C)CC[C@H]3C(C)(C)C(=O)CC[C@]23C)[C@@]1(C)CCC(=O)O | – | Activity (Mus musculus): Active
C=C(C)[C@@H]1CC=C(C)[C@H](CC[C@H]2C(=C)CC[C@H]3C(C)(C)[C@@H](O)CC[C@]23C)[C@@]1(C)CCC(=O)OC | 29.5 | –
C=C(C)[C@@H]1CC=C(C)[C@H](CC[C@H]2C(=C)CC[C@H]3C(C)(C)[C@@H](O)CC[C@]23C)[C@@]1(C)CCC(=O)O | 73.8 | –
